This is an account of results in patent US12162855B2, “Tetrahydroquinolino derivatives for the treatment of metastatic and chemoresistant cancers” (THE TRUSTEES OF PRINCETON UNIVERSITY, priority 2018, dated 2024).

The target in one test is T1, Aldh3a1 (Homo sapiens, UniProt P30838).
T1 construct: expressed in transfected cells; host or cells: MCF7, lentiviral pLex vector
T1 sequence (P30838 1-453): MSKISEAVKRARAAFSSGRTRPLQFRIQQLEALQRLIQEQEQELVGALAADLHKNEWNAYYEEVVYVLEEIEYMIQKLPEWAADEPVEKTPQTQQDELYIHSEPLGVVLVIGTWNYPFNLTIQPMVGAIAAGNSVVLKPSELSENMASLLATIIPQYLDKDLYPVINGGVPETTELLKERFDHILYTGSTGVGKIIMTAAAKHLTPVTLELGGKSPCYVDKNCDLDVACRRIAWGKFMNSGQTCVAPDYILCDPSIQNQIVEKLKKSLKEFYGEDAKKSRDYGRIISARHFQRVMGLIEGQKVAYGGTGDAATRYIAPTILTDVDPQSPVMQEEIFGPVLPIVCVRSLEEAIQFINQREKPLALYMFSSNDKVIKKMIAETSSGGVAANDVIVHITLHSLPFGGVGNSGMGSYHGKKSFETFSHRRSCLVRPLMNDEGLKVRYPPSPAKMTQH
Description: ALDEFLUOR assay in MCF7 cells transduced with human Aldh3a1. In kind it is cell-based. As to conditions: concentrations below 10 μM. The procedure: The coding sequences of Aldh1a1, Aldh1a2, Aldh1a3 and Aldh3a1 were cloned from cDNA made from pooled human reference RNA samples. Cloned sequences flanked by Age1 and Xho1 restriction sites were inserted into the pLex lentiviral plasmid. Clones were sequenced and compared against NCBI expressed sequence tags (ESTs) for accuracy. […]. Viruses were collected and filtered at 0.45 μm, then cells were transduced using polybrene (8 μg/mL) for 12 hours, followed by culture with 1 μg/mL puromycin for the duration of experiments. All viral transduction and selection was performed on a cell population-wide basis.
(§1) Cells were counted, centrifuged and resuspended at 1,000,000 cells/mL in ALDEFLUOR™ buffer (Stemcell Technologies). ALDEFLUOR™ substrate (Stemcell Technologies, 1:200) and test compound or 1 mM DEAB were added to cell suspension and incubated at 37° C. for 45 minutes with vortexing every 15 minutes. Cells were centrifuged and resuspended in ALDEFLUOR™ buffer with DAPI at 5 μg/mL. Samples were analyzed with the BD LSR2 flow cytometry platform. Gating was performed using DEAB as a negative control.

A further test addresses T2, Aldh1a2 (Homo sapiens, UniProt O94788).
T2 construct: expressed in transfected cells; host or cells: 293T, transient transfection
T2 sequence (O94788 1-518): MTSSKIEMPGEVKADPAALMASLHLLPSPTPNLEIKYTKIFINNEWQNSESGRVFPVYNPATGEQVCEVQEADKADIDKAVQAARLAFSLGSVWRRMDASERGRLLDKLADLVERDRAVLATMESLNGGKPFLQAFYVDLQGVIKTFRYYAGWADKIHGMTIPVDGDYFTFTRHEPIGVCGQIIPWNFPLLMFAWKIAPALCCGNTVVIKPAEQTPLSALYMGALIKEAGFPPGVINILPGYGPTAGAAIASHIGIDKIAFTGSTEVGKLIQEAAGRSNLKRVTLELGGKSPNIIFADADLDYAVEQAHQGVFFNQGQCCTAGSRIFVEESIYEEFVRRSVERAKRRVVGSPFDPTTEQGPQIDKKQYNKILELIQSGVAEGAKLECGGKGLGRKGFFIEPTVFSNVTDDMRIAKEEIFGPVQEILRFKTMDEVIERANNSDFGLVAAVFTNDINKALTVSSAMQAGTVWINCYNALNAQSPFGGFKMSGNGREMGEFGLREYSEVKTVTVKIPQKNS
In words: ALDEFLUOR assay in 293T cells transiently transfected with human Aldh1a2. As to conditions: concentrations below 10 μM. In kind it is cell-based. The procedure:
The coding sequences of Aldh1a1, Aldh1a2, Aldh1a3 and Aldh3a1 were cloned from cDNA made from pooled human reference RNA samples. Cloned sequences flanked by Age1 and Xho1 restriction sites were inserted into the pLex lentiviral plasmid. Clones were sequenced and compared against NCBI expressed sequence tags (ESTs) for accuracy. Viral production of each enzyme was performed by transfection into the 293T packaging cell line using PEI along with PsPax2 and VSVG packaging vectors. Viruses were collected and filtered at 0.45 μm, then cells were transduced using polybrene (8 μg/mL) for 12 hours, followed by culture with 1 μg/mL puromycin for the duration of experiments. All viral transduction and selection was performed on a cell population-wide basis.
as §1

Test [1] deals with Sum-159-M1a-Aldh1a3 cells. Description: Lung metastasis xenograft, Sum-159-M1a-Aldh1a3 cells by tail-vein injection. As to conditions: 25 mg/kg daily with paclitaxel 12.5 mg/kg every other day, 12 days. In kind it is in vivo, mouse. The procedure: In another xenograft experiment, mice were injected with Sum-159-M1a-Aldh1a3 cells via tail-vein injection, and were randomized following injection. Mice were treated with MBE1.5 (25 mg/kg daily) or vehicle, and paclitaxel (12.5 mg/kg every other day) for twelve days. Lung metastasis progression was tracked by intravital bioluminescence.

Regarding `CCc1cnccc1C(=O)Nc1cc2c(cc1F)NC(=O)CC2` [MBE1, 3-ethyl-N-(7-fluoro-2-oxo-1,2,3,4-tetrahydroquinolin-6-yl)isonicotinamide], the “inhibition of Aldh3a1 activity (FIG. 2A)” value at Aldh3a1 is reported as “does not inhibit”.

With `CCc1ccccc1C(=O)Nc1cc2c(cc1F)NC(=O)CC2` [MBE1.5, 2-ethyl-N-(7-fluoro-2-oxo-1,2,3,4-tetrahydroquinolin-6-yl)benzamide], the “inhibition of Aldh1a2 activity (FIG. 2B)” value at Aldh1a2 is “does not inhibit”. Further, the “mouse survival, Kaplan-Meier (FIG. 16B)” value in test [1] is “extended survival in mice with late-stage established breast cancer lung metastasis”.
